Experiment [1] addresses T1, Neuropeptide Y receptor type 5 (Mus musculus, UniProt O70342).
T1 sequence (O70342 whole entry): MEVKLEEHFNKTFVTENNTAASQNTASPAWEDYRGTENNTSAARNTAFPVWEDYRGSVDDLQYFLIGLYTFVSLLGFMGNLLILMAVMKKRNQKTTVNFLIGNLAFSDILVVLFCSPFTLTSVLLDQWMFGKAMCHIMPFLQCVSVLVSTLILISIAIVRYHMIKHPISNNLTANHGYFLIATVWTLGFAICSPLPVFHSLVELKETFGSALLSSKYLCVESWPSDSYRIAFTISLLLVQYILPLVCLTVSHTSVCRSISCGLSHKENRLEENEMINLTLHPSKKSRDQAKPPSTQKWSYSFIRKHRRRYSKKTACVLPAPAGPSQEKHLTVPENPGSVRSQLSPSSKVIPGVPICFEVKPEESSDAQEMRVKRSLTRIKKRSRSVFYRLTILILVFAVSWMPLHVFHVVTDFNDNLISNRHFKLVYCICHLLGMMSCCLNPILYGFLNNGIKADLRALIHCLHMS
In words: Inhibitory concentration against Neuropeptide Y receptor type 5 in mouse. The experiment is classed as organism-based.

Experiment [2] deals with T1, Neuropeptide Y receptor type 5. In words: Inhibitory concentration against Neuropeptide Y receptor type 5 in mouse; Inactive.

In general, IC50 refers to the midpoint of a concentration-inhibition curve. `N#Cc1cccc(Nc2ncc(C(=O)c3ccccc3F)s2)c1` yielded a half-maximal inhibitory concentration (IC50) in experiment [1] of 19 nM.
`Cc1ccccc1C(=O)c1cnc(Nc2cccc(C(F)(F)F)c2)s1` came in with an IC50 in experiment [1] of 63 nM.
The same measure, in the same setting: with `O=C(c1cccc(F)c1)c1cnc(Nc2cccc(C(F)(F)F)c2)s1` the figure was 885 nM.
Regarding `COc1ccc(C(=O)c2cnc(Nc3cccc(C#N)c3)s2)cc1`, the IC50 in experiment [1] is 2230 nM.
`Cc1cc(C(=O)c2cnc(Nc3cccc(C(F)(F)F)c3)s2)c(C)s1` came in with an IC50 in experiment [1] of 395 nM. This IC50 is about 5.6-fold lower than that of the compound before.
`Cc1ccccc1C(=O)c1cnc(Nc2cccc(C#N)c2)s1` showed an IC50 in experiment [1] of 4.2 nM.
As for `COc1cccc(Nc2ncc(C(=O)c3ccccc3F)s2)c1`, in experiment [1], the IC50 was 1000 nM.
In experiment [1], `CCc1ccccc1C(=O)c1cnc(Nc2cccc(C#N)c2)s1` registered an IC50 of 2.8 nM.
Turning to `O=C(c1cnc(Nc2cccc(C(F)(F)F)c2)s1)c1ccccc1C(F)(F)F`, in experiment [1], the IC50 was 138 nM. Compared with the last compound, the IC50 is about 49-fold higher.
For `O=C(c1cnc(Nc2ccc(Cl)cc2)s1)c1ccccc1F`, the IC50 in experiment [1] amounted to 1670 nM. Against the preceding compound, the IC50 is about 12-fold higher.
`Cc1cc(C(=O)c2cnc(Nc3cccc(C#N)c3)s2)c(C)s1` gave an IC50 in experiment [1] of 14 nM.
As for `O=C(c1cnc(Nc2cc(Cl)cc(Cl)c2)s1)c1ccccc1F`, the IC50 result in experiment [2] was “Not Active”.
The compound `N#Cc1cccc(Nc2ncc(C(=O)c3ccccc3C(F)(F)F)s2)c1` came in with an IC50 in experiment [1] of 20 nM.
`CCc1ccccc1C(=O)c1cnc(Nc2cccc(C(F)(F)F)c2)s1` gave an IC50 in experiment [1] of 32 nM.

These data come from ChEMBL document CHEMBL1142038, “Novel and potent NPY5 receptor antagonists derived from virtual screening and iterative parallel chemistry design” (Bioorg Med Chem Lett, 2005).
